Source: ChEMBL document CHEMBL1148617, “Design, synthesis, and structure-activity relationships of 1-,3-,8-, and 9-substituted-9-deazaxanthines at the human A2B adenosine receptor” (J Med Chem, 2006)

Legend:
Adenosine receptor A2a [1] = target: T1, Adenosine receptor A2a (Homo sapiens, UniProt P29274); assay: Displacement of [3H]ZM-241385 from recombinant human adenosine A2A receptor expressed in HeLa cells at 0.1 uM
Adenosine receptor A2a [2] = target: T1, Adenosine receptor A2a
Description: Binding affinity to recombinant human adenosine A2A receptor

[3] = target: T2, Adenosine receptor A2b (Homo sapiens) (UniProt P29275); assay: Displacement of [3H]DPCPX from recombinant human adenosine A2B receptor expressed in HEK293 cells at 0.1 uM; format: cell-based
T2 sequence (whole entry): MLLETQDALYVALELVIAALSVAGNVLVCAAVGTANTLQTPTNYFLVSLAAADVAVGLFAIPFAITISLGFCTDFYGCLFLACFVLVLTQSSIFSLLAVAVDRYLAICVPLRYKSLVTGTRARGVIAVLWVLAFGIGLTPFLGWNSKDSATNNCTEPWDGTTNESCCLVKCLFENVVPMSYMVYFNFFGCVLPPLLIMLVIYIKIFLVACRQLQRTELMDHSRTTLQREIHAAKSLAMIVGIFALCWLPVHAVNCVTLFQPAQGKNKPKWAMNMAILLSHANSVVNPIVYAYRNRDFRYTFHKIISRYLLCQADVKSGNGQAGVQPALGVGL

Adenosine receptor A2b = target: T3, Adenosine receptor A2b (Homo sapiens, UniProt P29275)
T3 sequence (P29275 whole entry): T2 sequence (whole entry)
Description: Binding affinity to recombinant human adenosine A2B receptor

[4] = target: T2, Adenosine receptor A2b (Homo sapiens); assay: Displacement of [3H]DPCPX from recombinant human adenosine A2B receptor expressed in HEK293 cells at 0.01 uM
Adenosine receptor A3 = target: T4, Adenosine receptor A3 (Homo sapiens, UniProt P0DMS8)
T4 sequence (P0DMS8 whole entry): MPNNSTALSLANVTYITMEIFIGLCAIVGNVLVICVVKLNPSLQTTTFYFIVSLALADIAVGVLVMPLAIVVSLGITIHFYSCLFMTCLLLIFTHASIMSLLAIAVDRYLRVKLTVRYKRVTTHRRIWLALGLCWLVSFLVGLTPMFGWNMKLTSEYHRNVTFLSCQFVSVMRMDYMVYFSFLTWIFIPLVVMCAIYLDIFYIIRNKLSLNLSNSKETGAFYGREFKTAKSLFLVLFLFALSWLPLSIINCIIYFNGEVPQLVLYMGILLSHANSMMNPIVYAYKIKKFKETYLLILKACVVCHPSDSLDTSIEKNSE
Description: Binding affinity to recombinant human adenosine A3 receptor

Adenosine receptor A1 = target: T5, Adenosine receptor A1 (Homo sapiens, UniProt P30542)
T5 sequence (P30542 whole entry): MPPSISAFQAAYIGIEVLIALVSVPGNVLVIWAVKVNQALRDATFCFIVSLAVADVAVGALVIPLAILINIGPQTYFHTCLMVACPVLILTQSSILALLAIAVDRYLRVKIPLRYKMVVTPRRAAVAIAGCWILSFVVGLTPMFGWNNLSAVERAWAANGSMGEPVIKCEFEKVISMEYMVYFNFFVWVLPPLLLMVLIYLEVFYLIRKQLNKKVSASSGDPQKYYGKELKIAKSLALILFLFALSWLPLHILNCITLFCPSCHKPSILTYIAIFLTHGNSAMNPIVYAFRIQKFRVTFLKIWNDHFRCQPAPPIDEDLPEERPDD
Description: Binding affinity to recombinant human adenosine A1 receptor

T1 sequence (P29274 whole entry): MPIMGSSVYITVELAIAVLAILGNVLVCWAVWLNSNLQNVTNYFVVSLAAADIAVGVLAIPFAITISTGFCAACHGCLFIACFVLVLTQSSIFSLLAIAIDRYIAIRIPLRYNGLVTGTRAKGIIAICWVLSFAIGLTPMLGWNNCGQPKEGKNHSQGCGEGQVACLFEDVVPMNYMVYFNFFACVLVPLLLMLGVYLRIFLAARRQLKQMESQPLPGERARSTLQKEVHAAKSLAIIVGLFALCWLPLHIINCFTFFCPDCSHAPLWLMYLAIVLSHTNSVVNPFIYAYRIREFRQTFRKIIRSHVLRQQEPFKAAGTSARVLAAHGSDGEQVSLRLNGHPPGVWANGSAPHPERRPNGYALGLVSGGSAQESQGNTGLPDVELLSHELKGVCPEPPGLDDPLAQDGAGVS

| SMILES | inhibition (Adenosine receptor A2a [1]) | Ki (Adenosine receptor A2a [2]) | inhibition [3] | Ki (Adenosine receptor A2b) | inhibition [4] | Ki (Adenosine receptor A3) | Ki (Adenosine receptor A1) |
| --- | --- | --- | --- | --- | --- | --- | --- |
| CCCn1c(=O)c2[nH]c(-c3ccc(OC(C)C(=O)Nc4ccc(OC)cc4)cc3)cc2n(CCC)c1=O (stereo not drawn) | 57% | 0.0389 µM | 92% | 0.00513 µM | 55% |  |  |
| COCCCn1c(=O)n(C)c(=O)c2[nH]c(-c3ccc(OCC(=O)NC4CCCC4)cc3)cc21 | 0% | 0.427 µM | 16% | 0.263 µM | 8% |  |  |
| CCCn1c(=O)c2[nH]c(-c3ccc(OCC(=O)Nc4ccc(Br)cc4)cc3)c(Cl)c2n(CCC)c1=O | 37% | 0.126 µM | 73% | 0.0245 µM | 15% |  |  |
| CCCn1c(=O)c2[nH]c(-c3ccc(OC(C)(C)C(=O)Nc4ccc(F)cc4)cc3)cc2n(CCC)c1=O | 32% | 0.017 µM | 97% | 0.00891 µM | 50% |  |  |
| CCCn1c(=O)c2[nH]c(-c3ccc(OCC(=O)n4ccc(N)n4)cc3)cc2n(CCC)c1=O | 65% | 0.0263 µM | 83% | 0.017 µM | 30% |  |  |
| COCCCn1c(=O)n(C)c(=O)c2[nH]c(-c3ccc(OCC(=O)Nc4ccccc4)cc3)cc21 | 29% | 0.12 µM | 80% | 0.0138 µM | 27% |  |  |
| CCCn1c(=O)c2[nH]c(-c3ccc(OCC(=O)Nc4ccc(CC(=O)OCC)cc4)cc3)cc2n(CCC)c1=O | 10% | 0.24 µM | 58% | 0.0603 µM | 32% |  |  |
| CCCn1c(=O)c2[nH]c(-c3ccc(OCC(=O)Nc4ccc(Cl)cc4)cc3)cc2n(CCC)c1=O | 61% | 0.0316 µM | 95% | 0.00316 µM | 58% |  |  |
| CCCn1c(=O)c2[nH]c(-c3ccc(OC(CC)C(=O)Nc4ccccc4)cc3)cc2n(CCC)c1=O (stereo not drawn) | 88% | 0.0257 µM | 93% | 0.00977 µM | 48% |  |  |
| O=C(COc1ccc(-c2cc3c([nH]2)c(=O)n(CC2CC2)c(=O)n3CC2CC2)cc1)Nc1ccccc1 | 93% | 0.0155 µM | 96% | 0.00468 µM | 57% |  |  |
| CCCn1c(=O)c2[nH]c(-c3ccc(OCC(=O)Nc4ccccc4F)cc3)c(Cl)c2n(CCC)c1=O | 2% | 0.724 µM | 30% | 0.141 µM | 5% |  |  |
| CCCn1c(=O)c2[nH]c(-c3ccc(OCC(=O)Nc4ccc(C(N)=O)cc4)cc3)cc2n(CCC)c1=O | 43% | 0.024 µM | 78% | 0.0251 µM | 16% |  |  |
| CCCn1c(=O)n(C)c(=O)c2[nH]c(-c3ccc(OCC(=O)Nc4ccccc4)cc3)cc21 | 40% | 0.195 µM | 80% | 0.0214 µM | 33% |  |  |
| CCCn1c(=O)c2[nH]c(-c3ccc(OCC(=O)c4c(NC(=O)O)n(C)c(=O)n(C)c4=O)cc3)cc2n(CCC)c1=O | 61% | 0.0794 µM | 59% | 0.1 µM | 24% |  |  |
| CCCn1c(=O)c2[nH]c(-c3ccc(OCC(=O)NCc4ccccc4)cc3)nc2n(CCC)c1=O |  | 0.02 µM |  |  |  | 0.141 µM | 0.0631 µM |
| COc1cc(OCC(=O)Nc2ccc(F)cc2)ccc1-c1cc2c([nH]1)c(=O)n(C)c(=O)n2C | 31% | 0.0955 µM | 63% | 0.0251 µM | 23% |  |  |
| CCCn1c(=O)c2[nH]c(-c3ccc(OCC(=O)Nc4ccc(Cl)cc4)cc3)c(Cl)c2n(CCC)c1=O | 28% | 0.0891 µM | 80% | 0.0229 µM | 17% |  |  |
| CCCn1c(=O)c2[nH]c(-c3ccc(OCC(=O)Nc4ccc(OC)cc4)cc3)c(Cl)c2n(CCC)c1=O | 45% | 0.0447 µM | 70% | 0.0275 µM | 15% |  |  |
